Results reported in paper PMC9202514 (FASEB journal : official publication of the Federation of …, 2022).

Key:
GmITPK2 = target: T1, GmITPK2 (Glycine max, UniProt A7X665); test: Ins; type: biochemical; conditions: 1 mM ADP, pH 7.2, 25 °C
T1 sequence (A7X665 1-315): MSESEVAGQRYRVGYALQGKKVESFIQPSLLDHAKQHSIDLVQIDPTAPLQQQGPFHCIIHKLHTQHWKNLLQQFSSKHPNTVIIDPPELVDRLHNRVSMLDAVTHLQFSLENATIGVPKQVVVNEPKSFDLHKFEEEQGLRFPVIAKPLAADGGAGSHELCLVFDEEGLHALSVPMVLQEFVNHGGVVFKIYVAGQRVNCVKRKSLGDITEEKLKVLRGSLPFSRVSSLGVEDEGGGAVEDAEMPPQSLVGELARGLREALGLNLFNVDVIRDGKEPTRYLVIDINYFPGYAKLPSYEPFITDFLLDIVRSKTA

GmITPK1 = target: T2, GmITPK1 (Glycine max, UniProt A7X657); test: InsP6 kinase activity assay; type: biochemical; conditions: 1 mM ATP, pH 7.2, 25 °C
T2 sequence (A7X657 1-339): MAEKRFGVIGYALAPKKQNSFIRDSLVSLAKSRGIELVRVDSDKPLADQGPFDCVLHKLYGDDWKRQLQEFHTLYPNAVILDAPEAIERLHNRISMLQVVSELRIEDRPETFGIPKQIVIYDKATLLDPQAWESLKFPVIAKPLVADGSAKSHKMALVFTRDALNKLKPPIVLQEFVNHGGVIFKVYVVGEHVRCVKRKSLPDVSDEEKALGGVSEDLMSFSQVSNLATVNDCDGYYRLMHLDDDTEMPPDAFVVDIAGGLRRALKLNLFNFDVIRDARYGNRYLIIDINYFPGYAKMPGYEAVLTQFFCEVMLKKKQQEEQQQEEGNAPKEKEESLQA

Ins(1,3,4,5,6)P5 phosphatase activity assay (GmITPK2)	Compound	InsP6 kinase activity assay (GmITPK1)
GmITPK2 exhibited the higher activity	O=P(O)(O)O[C@@H]1[C@@H](OP(=O)(O)O)[C@H](OP(=O)(O)O)[C@H](O)[C@H](OP(=O)(O)O)[C@H]1OP(=O)(O)O [Ins(1,3,4,5,6)P5]	
	O=P(O)(O)O[C@H]1[C@H](OP(=O)(O)O)[C@@H](OP(=O)(O)O)[C@H](OP(=O)(O)O)[C@@H](OP(=O)(O)O)[C@H]1OP(=O)(O)O [InsP6]	recombinant His6MBP-GmITPK1 is an active InsP6 kinase
